One assay concerns S. epidermidis. It is filed as cell-based. As to conditions: BHI supplemented with 0.25% glucose, 37° C., aerobic. On the procedure:
(§1) In certain embodiments the MIC assays are performed as described herein in the Examples. For each organism, the media and growth conditions utilized is detailed in Table 8.
(§2) In certain embodiments the MIC assays are performed as follows: For each organism, the media and growth conditions utilized is detailed in Table 8.

The test system of another assay is S. mutans. It is filed as cell-based, Streptococcus mutans. As to conditions: TH supplemented with 1% sucrose, 37° C., anaerobic. On the procedure: as §1, §2
For the next assay, the system named is P. aeruginosa. It is filed as cell-based, Pseudomonas aeruginosa. As to conditions: MH, 37° C., aerobic. The protocol: as §1, §2
The next assay concerns M. furfur. As to the kind of experiment: MIC assay, M. furfur. In kind it is cell-based, Malassezia furfur. As to conditions: ATCC medium 1072, 37° C., aerobic. The protocol: as §1, §2
A further assay has as its system T. rubrum. It is filed as cell-based, Trichophyton rubrum. As to conditions: T. rubrum; Potato Dextrose Agar, 25° C., aerobic. On the procedure:
as §1, §2

In a further assay the test system is P. gingivalis. In kind it is cell-based, Porphyromonas gingivalis. As to conditions: Columbia broth, 37° C., anaerobic. On the procedure: as §1, §2
Another assay concerns A. baumannii. It is filed as cell-based, Acinetobacter baumannii. As to conditions: LB, 30° C., anaerobic. The protocol: as §1, §2
The test system of another assay is MRSA. In kind it is cell-based, Methicillin-resistant Staphylococcus aureus. As to conditions: MRSA; BHI supplemented with 2% glucose, 37° C., aerobic. On the procedure: as §1, §2
Another assay has as its system B. subtilis. It is filed as cell-based, Bacillus subtilis. As to conditions: B. subtilis; BHI, 30° C., aerobic. The protocol:
as §1, §2

≈ marks a conversion by molar mass, not a printed value.

For orientation: MIC means the smallest concentration in the dilution series that meets the test's criterion for growth inhibition. Low readings indicate a more susceptible organism, high ones a less susceptible organism. Turning to `CC[C@H](C)[C@H](NC(=O)[C@@H](NC(=O)[C@H](CO)NC(=O)CN)C(C)C)C(=O)N[C@@H](CCCCN)C(=O)N[C@@H](CCCCN)C(=O)N[C@@H](CCCNC(=N)N)C(=O)N[C@@H](CCCNC(=N)N)C(=O)N[C@@H](CCCCN)C(=O)N[C@@H](CCCNC(=N)N)C(=O)N[C@@H](CCSC)C(=O)N[C@@H](CO)C(=O)N[C@@H](CCCCN)C(=O)N[C@@H](CCCCN)C(=O)N[C@@H](CCCCN)C(=O)N[C@@H](Cc1c[nH]cn1)C(=O)N[C@@H](CCCNC(=N)N)C(=O)N[C@@H](CCCCN)C(=O)N[C@@H](CCSC)C(=O)N[C@@H](CC(C)C)C(=O)N[C@@H](CCCNC(=N)N)C(=O)N[C@@H](CCCNC(=N)N)C(=O)N[C@H](C(=O)N[C@@H](CCCNC(=N)N)C(=O)N[C@H](C(=O)N[C@@H](CCC(N)=O)C(=O)N[C@@H](CCCNC(=N)N)C(=O)N[C@@H](CCCNC(=N)N)C(=O)N[C@@H](CCCCN)C(=O)N[C@@H](CC(C)C)C(=O)NCC(=O)N[C@@H](CCCCN)C(=O)O)C(C)C)[C@@H](C)O` [PF-S028], the MIC in the assay with S. epidermidis was 25 µM (≈ 101 µg/mL); against S. mutans, 50 µM (≈ 202 µg/mL); against P. aeruginosa, 50 µM (≈ 202 µg/mL); with M. furfur it was 2.5 µM (≈ 10.1 µg/mL); in the assay with T. rubrum, 50 µM (≈ 202 µg/mL); with P. gingivalis, 25 µM (≈ 101 µg/mL).
For the compound `CC[C@H](C)[C@H](NC(=O)CNC(=O)[C@@H](N)CCSC)C(=O)N[C@H](C(=O)N[C@@H](C)C(=O)NCC(=O)N[C@H](C(=O)N[C@H](C(=O)N[C@@H](CCCCN)C(=O)N[C@@H](Cc1ccccc1)C(=O)N[C@H](C(=O)N[C@@H](CCCCN)C(=O)NCC(=O)N[C@@H](CC(C)C)C(=O)N[C@H](C(=O)N[C@@H](CCC(=O)O)C(=O)N[C@@H](CCCCN)C(=O)N[C@@H](Cc1ccccc1)C(=O)N[C@H](C(=O)NCC(=O)N[C@@H](CCCCN)C(=O)O)[C@@H](C)O)[C@@H](C)CC)[C@@H](C)CC)[C@@H](C)CC)[C@@H](C)CC)[C@@H](C)CC` [PF-006], the minimal inhibitory concentration (MIC) came out at 50 µM (≈ 114 µg/mL) in the assay on A. baumannii, 50 µM (≈ 114 µg/mL) in the assay on MRSA and 25 µM (≈ 56.9 µg/mL) in the assay on B. subtilis.

Source of the values: US8303962B2, “Antibacterial and antifungal peptides” (C3 Jian, Inc., priority 2009, dated 2012).
